Laboratory results as given in patent EP4501112A1, “PLANT DEFENSE ELICITORS” (Globachem NV, priority 2023, dated 2025).

Legend:
[1] = test system: English grain aphid (Sitobion avenae); experiment: Survival of S. avenae on wheat after foliar spray (greenhouse pots); format: in vivo; conditions: 0.65 g pelargonic acid in 500 mL water
Method: DISEASE/PEST: English grain aphid (Sitobion avenae) CROP: WHEAT (Triticum aestivum) APPLICATION: FOLIAR PROTOCOL: T. aestivum plants were grown in pots (8x8 cm) in the greenhouse until reaching a height of 10 cm. Each pot contained 50 seeds. Each treatment consisted of 3 replicates. Plants were sprayed with a handheld sprayer containing 0.65 g of pelargonic acid in 500 mL of water for the 3 replicates. Control plants were sprayed with water. Spraying solutions (as noted in the Table 1) were prepared freshly before treatment. S. avenae (N=10) were added 1 hour after spraying. Insects were counted, 1, 4, 6, 12 and 14 days after the treatment applied. Table 1. Efficacy assessment survival of S. avenae on T. aestivum (number of aphids)

[2] = test system: S. avenae; experiment: Aphid survival and sucking on untreated leaves after treating one leaf of Chinese cabbage; format: in vivo; set-up: key to S. avenae sucking: 0=no damage or no sucking observed; 1=some damage or some sucking observed; 3=half leaf eaten or half of aphids sucking the leaf; 5=no leaf left or all insects sucking and reproducing; conditions: for S. avenae sucking: scale 0 - 5
[3] = test system: S. exigua; experiment: Direct feeding of pelargonic acid (comparative example 1c); format: in vivo; conditions: Table 3 is an image
Source text: Example 1c. Direct effect pelargonic acid (Comparative example) [table]

[4] = test system: Meligethes Aeneus; experiment: Field trial, foliar spray against M. aeneus on oil seed rape; format: in vivo
Source text: DISEASE/[…] Aeneus CROP: Oil seed rape (Brassica napus spp. Campino) APPLICATION: Foliar spray EXPERIMENT/TRIAL PROTOCOL: Foliar spray was applied in the field with a motorized sprayer in spring when the insects appeared on the crop (BBCH 38-41). The trial design consisted of a randomized complete block with 4 replications per treatment. The treated area per plot was 30m^2. Used water volume was 300 L/ha. Evaluation was done by counting adult insects per 25 plants. […] Table 5: Efficacy assessment: % efficacy versus untreated (%UNCK) of M. aeneus on B. napus (field)

[5] = test system: Fusarium culmorum; experiment: whole plant or invertebrate; format: in vivo; conditions: Fusarium culmorum, in Triticum aestivum, 144 h, read-out: % Efficacy
[6] = test system: Puccinia triticina; experiment: Greenhouse trial, foliar treatment against PUCCTR in wheat

CCCCCCCCC(=O)O [Pelargonic acid, pelargonic acid]
survival of S. avenae on T. aestivum (number of aphids) ([1]; 4 DAT): 4.2
survival of S. avenae on T. aestivum (number of aphids) ([1]; 6 DAT): 7.4
survival of S. avenae on T. aestivum (number of aphids) ([1]; 10 aphids added 1 hour after spraying, 1 DAT): 3
survival of S. avenae on T. aestivum (number of aphids) ([1]; 12 DAT): 9.6
survival of S. avenae on T. aestivum (number of aphids) ([1]; 14 DAT): 15
S. avenae sucking ([2]; 0.78 mg on one leaf, insects added 1h after treatment, 6 DAT): 4
S. avenae sucking ([2]; 0.78 mg on one leaf, insects added 1h after treatment, 24h AT): 0
S. avenae sucking ([2]; 0.78 mg on one leaf, insects added 24 h after treatment, 6 DAT): 1
S. avenae sucking ([2]; 0.78 mg on one leaf, insects added 24 h after treatment, 24h AT): 4
S. avenae survival ([2]; 0.78 mg on one leaf, insects on non-treated leaves, added 24 h after treatment, 6 DAT): Very small colony
number of S. avenae individuals and sucking ([2]; 0.78mg, insects introduced 24h after treatment to an untreated leaf of the same plant): reduction
direct control of S. exigua [3]: no direct control
% efficacy versus untreated (%UNCK) of M. aeneus on B. napus (field) ([4]; 650 g/ha, 4DAA): 91 b %
% efficacy versus untreated (%UNCK) of M. aeneus on B. napus (field) ([4]; 650 g/ha, 8DAA): 89 b %
% efficacy versus untreated (%UNCK) of M. aeneus on B. napus (field) ([4]; 650 g/ha, 300 L/ha water, 1DAA): 34.60 c %
% efficacy versus untreated (%UNCK) of M. aeneus on B. napus (field) ([4]; 975 g/ha, 1DAA): 79.25 ab %
% efficacy versus untreated (%UNCK) of M. aeneus on B. napus (field) ([4]; 975 g/ha, 4DAA): 100 a %
% efficacy versus untreated (%UNCK) of M. aeneus on B. napus (field) ([4]; 975 g/ha, 8DAA): 100 a %
Emax [5]: 100%
EFFICACY % ALL LEAV ES ([6]; foliar 1.52 g ai/ha, 13 dai): 18.6%
EFFICACY % LEAF 1 ([6]; foliar 1.52 g ai/ha, 13 dai): 50.0%
EFFICACY % LEAF 2 ([6]; foliar 1.52 g ai/ha, 13 dai): 5.9%
EFFICACY % LEAF 3 ([6]; foliar 1.52 g ai/ha, 13 dai): 5.9%
EFFICACY % LEAF 4 ([6]; foliar 1.52 g ai/ha, 13 dai): 12.5%
EFFICACY % ALL LEAV ES ([6]; foliar 7.6 g ai/ha, 21 dai): 23.6%
EFFICACY % LEAF 1 ([6]; foliar 7.6 g ai/ha, 21 dai): 28.6%
EFFICACY % LEAF 2 ([6]; foliar 7.6 g ai/ha, 21 dai): 17.9%
EFFICACY % LEAF 3 ([6]; foliar 7.6 g ai/ha, 21 dai): 29.8%
EFFICACY % LEAF 4 ([6]; foliar 7.6 g ai/ha, 21 dai): 18.3%
EFFICACY % ALL LEAV ES ([6]; foliar 95 g ai/ha, 13 dai): 11.3%
EFFICACY % LEAF 1 ([6]; foliar 95 g ai/ha, 13 dai): 33.3%
EFFICACY % LEAF 2 ([6]; foliar 95 g ai/ha, 13 dai): 0.0%
EFFICACY % LEAF 3 ([6]; foliar 95 g ai/ha, 13 dai): 11.8%
EFFICACY % LEAF 4 ([6]; foliar 95 g ai/ha, 13 dai): 0,0%
EFFICACY % ALL LEAV ES ([6]; foliar 760 g ai/ha, 13 dai): 30.5%
EFFICACY % LEAF 1 ([6]; foliar 760 g ai/ha, 13 dai): 66.7%
EFFICACY % LEAF 2 ([6]; foliar 760 g ai/ha, 13 dai): 11.8%
EFFICACY % LEAF 3 ([6]; foliar 760 g ai/ha, 13 dai): 0.0%
EFFICACY % LEAF 4 ([6]; foliar 760 g ai/ha, 13 dai): 43.8%
